The values below come from paper PMC6696278 (International Journal of Molecular Sciences, 2019).

SMILES strings stand for the structures. pKd: −log10 of the molar value.

Common to all, as to type: binding
The target of test [1] is T1, human galectin-9C (C-terminal domain) (Homo sapiens, UniProt O00182).
T1 construct: 4N (N-terminal domain) 4C (C-terminal domain), 7, 8N, 8C, 9N, and 9C; made in house
Description: competitive fluorescence polarization assay, galectin-9C. Conditions: Table 2, average and SEM, PBS. An excerpt:
(§1) Human galectin-1 [25], galectin-2 [26], galectin-3 [27], galectin-4N [19], galectin-4C [19], galectin-8N [28], galectin-8C [28], galectin-9N [29], and galectin-9C [30], were expressed and purified as described earlier. Human galectin-7 was expressed using a pET3c plasmid in E. coli BL21-star. The plasmid containing expression optimized DNA encoding the full human galectin-7 sequence (NCBI Reference Sequence: NP_002298.1) was obtained from GenScript (Piscataway, NJ, USA). […] Lactose was removed by chromatography on a PD-10 column (Amersham Biosciences) with repeated ultrafiltration with Centriprep (Amicon).
(§2) Fluorescence polarization experiments were carried out either with a POLARStar plate reader and FLUOstar Galaxy software or with a PheraStarFS plate reader and PHERAstar Mars version 2.10 R3 software (BMG, Offenburg, Germany). The dissociation constant (Kd) values were determined in PBS as described earlier. Specific conditions for galectin-1, 2, 3, 4N, 4C, 8N, 8C, 9N, and 9C were kept as reported. Experiments were performed at room temperature with human galectin-7 at 5 µM and the fluorescent probe β-D-galactopyranosyl-(1–4)-2-acetamido-2-deoxy-β-d-glucopyranosyl-(1–3)-β-d-galactopyranosyl-(1–4)-(N1-fluorescein-5-yl-carbonylaminomethylcarbonyl)-β-D-glucopyranosylamine at 0.02 µM. All the compounds in Table 1 except 32 were dissolved in a neat DMSO at 100 mM and diluted in PBS to three to six different concentrations to be tested in duplicate.

The target of a further test is T2, human galectin-2 (Homo sapiens, UniProt P05162).
T2 construct: made in house
T2 sequence (P05162 1-132): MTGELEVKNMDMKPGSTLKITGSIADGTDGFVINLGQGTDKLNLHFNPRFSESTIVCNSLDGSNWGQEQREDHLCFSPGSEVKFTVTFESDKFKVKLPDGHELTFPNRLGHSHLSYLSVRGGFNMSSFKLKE
The test is described as follows: competitive fluorescence polarization assay, galectin-2. The settings on record: Table 2; average and SEM; PBS.
Text: (§3) Human galectin-1 [25], galectin-2 [26], galectin-3 [27], galectin-4N [19], galectin-4C [19], galectin-8N [28], galectin-8C [28], galectin-9N [29], and galectin-9C [30], were expressed and purified as described earlier. Human galectin-7 was expressed using a pET3c plasmid in E. coli BL21-star. The plasmid containing expression optimized DNA encoding the full human galectin-7 sequence (NCBI Reference Sequence: NP_002298.1) was obtained from GenScript (Piscataway, NJ, USA). Bacterial culture and induction, and galectin purification was essential as described for galectin-3 expressed with the same vector [27]; a typical yield was 1.5–2 mg/L culture. Lactose was removed by chromatography on a PD-10 column (Amersham Biosciences) with repeated ultrafiltration with Centriprep (Amicon).
as §2
In general terms: Polarisation of emitted light reports the rotation of a fluorescent probe.

Another test addresses T3, human galectin-1 (Homo sapiens, UniProt P09382).
T3 construct: made in house
The test is described as follows: competitive fluorescence polarization assay, galectin-1.
Text: as §1, §2

Test [2] concerns the target T4, human galectin-4N (N-terminal domain) (Homo sapiens, UniProt P56470).
T4 construct: 4N (N-terminal domain) 4C (C-terminal domain); made in house
T4 sequence (P56470 19-150 limits assumed): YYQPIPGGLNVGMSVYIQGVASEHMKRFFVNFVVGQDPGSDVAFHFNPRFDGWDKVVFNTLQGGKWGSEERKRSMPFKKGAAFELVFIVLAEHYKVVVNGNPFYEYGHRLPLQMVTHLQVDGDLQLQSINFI
Description: competitive fluorescence polarization assay, galectin-4N. Conditions: Table 2; N-terminal domain; average and SEM; PBS.
Text: as §3, §2

The next test has as its target T5, human galectin-7 (Homo sapiens, UniProt P47929).
T5 construct: made in house; host or cells: E. coli BL21-star, pET3c plasmid (DNA from GenScript)
The test is described as follows: competitive fluorescence polarization assay, galectin-7. Conditions: Table 2; average and SEM; PBS, room temperature, galectin-7 at 5 µM, probe 0.02 µM.
Text: as §3, §2

The target of test [3] is T6, human galectin-8C (C-terminal domain) (Homo sapiens, UniProt O00214).
T6 construct: 4N (N-terminal domain) 4C (C-terminal domain), 7, 8N, 8C, 9N, and 9C; made in house
T6 sequence (O00214 187-317 limits assumed): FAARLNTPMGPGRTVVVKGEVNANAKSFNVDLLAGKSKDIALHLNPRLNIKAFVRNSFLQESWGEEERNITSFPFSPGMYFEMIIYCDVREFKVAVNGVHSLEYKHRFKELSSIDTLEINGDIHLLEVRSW
Description: competitive fluorescence polarization assay, galectin-8C. Conditions: Table 2, average and SEM, PBS.
Text: as §1, §2

Test [4] addresses T7, human galectin-4C (C-terminal domain) (Homo sapiens, UniProt P56470).
T7 construct: 4N (N-terminal domain) 4C (C-terminal domain); made in house
T7 sequence (P56470 194-323 limits assumed): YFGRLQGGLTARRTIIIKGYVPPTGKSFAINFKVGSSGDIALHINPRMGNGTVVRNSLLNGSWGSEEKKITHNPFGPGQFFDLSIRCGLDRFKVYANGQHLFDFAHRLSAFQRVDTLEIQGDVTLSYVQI
Description: competitive fluorescence polarization assay, galectin-4C. Conditions: Table 2, average and SEM, PBS.
Text: as §1, §2

For another test, the target named is T8, human galectin-3 (Homo sapiens, UniProt P17931).
T8 construct: made in house; host or cells: vector pET3c (the same vector as galectin-7)
T8 sequence (P17931 whole entry): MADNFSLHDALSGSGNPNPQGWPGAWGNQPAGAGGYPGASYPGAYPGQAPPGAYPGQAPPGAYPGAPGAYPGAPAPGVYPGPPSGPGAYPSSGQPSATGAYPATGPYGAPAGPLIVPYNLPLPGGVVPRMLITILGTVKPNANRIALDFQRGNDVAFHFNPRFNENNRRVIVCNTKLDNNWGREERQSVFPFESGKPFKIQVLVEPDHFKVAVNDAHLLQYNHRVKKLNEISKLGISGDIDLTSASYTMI
The test is described as follows: competitive fluorescence polarization assay, galectin-3. Conditions: Table 2; average and SEM; PBS.
Text: as §1, §2

The target of test [5] is T9, human galectin-9N (N-terminal domain) (Homo sapiens, UniProt O00182).
T9 construct: 4N (N-terminal domain) 4C (C-terminal domain), 7, 8N, 8C, 9N, and 9C; made in house
T9 sequence (O00182 17-148 limits assumed): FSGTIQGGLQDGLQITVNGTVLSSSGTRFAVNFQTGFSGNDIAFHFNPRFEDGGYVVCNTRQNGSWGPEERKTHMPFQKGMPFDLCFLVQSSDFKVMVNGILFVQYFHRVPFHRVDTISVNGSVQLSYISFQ
Description: competitive fluorescence polarization assay, galectin-9N. The settings on record: Table 2, average and SEM, PBS.
Text: as §3, §2

Test [6] concerns the target T10, human galectin-8N (N-terminal domain) (Homo sapiens, UniProt O00214).
T10 construct: 4N (N-terminal domain) 4C (C-terminal domain), 7, 8N, 8C, 9N, and 9C; made in house
T10 sequence (O00214 19-152 limits assumed): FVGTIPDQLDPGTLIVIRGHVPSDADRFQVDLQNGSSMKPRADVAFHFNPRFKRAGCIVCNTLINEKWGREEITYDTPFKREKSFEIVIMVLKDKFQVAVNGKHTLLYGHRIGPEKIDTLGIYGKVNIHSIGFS
Description: competitive fluorescence polarization assay, galectin-8N. Conditions: Table 2, average and SEM, PBS.
Text: as §1, §2

T3 sequence (P09382 whole entry): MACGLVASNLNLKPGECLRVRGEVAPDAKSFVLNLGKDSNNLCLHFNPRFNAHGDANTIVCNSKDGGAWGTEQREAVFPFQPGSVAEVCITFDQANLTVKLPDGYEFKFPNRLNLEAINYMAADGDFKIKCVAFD
T1 sequence (O00182 227-355 limits assumed): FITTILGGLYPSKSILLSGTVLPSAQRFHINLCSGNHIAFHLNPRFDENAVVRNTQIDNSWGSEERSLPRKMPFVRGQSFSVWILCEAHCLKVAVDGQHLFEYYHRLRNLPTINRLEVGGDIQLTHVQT
T5 sequence (P47929 whole entry): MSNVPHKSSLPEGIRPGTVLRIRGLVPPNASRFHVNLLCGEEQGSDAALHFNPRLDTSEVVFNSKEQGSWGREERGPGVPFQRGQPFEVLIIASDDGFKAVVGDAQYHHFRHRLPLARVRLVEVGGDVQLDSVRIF

As to `CO[C@@H]1O[C@H](CO)[C@H](O)[C@H](CNC(=O)c2ccc(-c3ccccc3)cc2)[C@H]1O` [Compound 7l, Methyl 3-Deoxy-3-C-(4-Phenylbenzamidomethyl)-β-D-Galactopyranoside], the pKd (commonly the Kd on a negative log10 scale, so that one unit is a factor of ten) is less than 2.40 in test [1]; less than 2.40 on human galectin-2; less than 2.40 at human galectin-1 (Table 2, average and SEM of 4–8 single-triple point measurements, PBS); less than 2.40 in test [2]; less than 2.40 at human galectin-7; less than 2.40 in test [3]. Also, the pKd (in [4]; at human galectin-3; in [5]; in test [6]) was less than 2.40 in each case. Moreover, the “binding to galectin-1 (in words)” value at human galectin-1 (under the assay conditions) is reported as “did not bind”.
